For 2 molecules, Activity, inhibition and IC50 results are on record in ChEMBL document CHEMBL4229400, “Covalent inhibitors of nicotinamide N-methyltransferase (NNMT) provide evidence for target engagement challenges in situ” (Bioorg Med Chem Lett, 2018).

For assay [1], the target named is T1, 5'-nucleotidase domain-containing protein 2 (Homo sapiens) (UniProt Q9H857).
T1 sequence (whole entry): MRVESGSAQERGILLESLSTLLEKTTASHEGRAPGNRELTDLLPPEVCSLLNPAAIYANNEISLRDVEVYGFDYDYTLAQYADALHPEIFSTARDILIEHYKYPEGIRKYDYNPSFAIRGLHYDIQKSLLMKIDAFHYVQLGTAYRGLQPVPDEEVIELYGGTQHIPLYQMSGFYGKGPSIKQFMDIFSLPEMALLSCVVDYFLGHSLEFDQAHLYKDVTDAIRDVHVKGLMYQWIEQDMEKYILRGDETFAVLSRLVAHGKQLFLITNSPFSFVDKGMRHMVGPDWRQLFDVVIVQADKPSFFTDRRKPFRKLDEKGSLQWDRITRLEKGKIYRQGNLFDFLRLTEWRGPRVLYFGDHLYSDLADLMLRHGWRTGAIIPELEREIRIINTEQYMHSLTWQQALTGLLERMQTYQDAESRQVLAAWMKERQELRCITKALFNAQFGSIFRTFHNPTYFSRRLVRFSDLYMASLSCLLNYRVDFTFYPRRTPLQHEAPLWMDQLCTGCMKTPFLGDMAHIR
The assay is described as follows: Binding affinity to NT5DC2 cysteine residue in human 786-O cell soluble proteomic lysate at 5 uM incubated for 1 hr followed by cell lysis by IA-alkyne probe based isoTOP-ABPP analysis.

The target of assay [2] is T2, Nicotinamide N-methyltransferase (Homo sapiens) (UniProt P40261).
T2 sequence (whole entry): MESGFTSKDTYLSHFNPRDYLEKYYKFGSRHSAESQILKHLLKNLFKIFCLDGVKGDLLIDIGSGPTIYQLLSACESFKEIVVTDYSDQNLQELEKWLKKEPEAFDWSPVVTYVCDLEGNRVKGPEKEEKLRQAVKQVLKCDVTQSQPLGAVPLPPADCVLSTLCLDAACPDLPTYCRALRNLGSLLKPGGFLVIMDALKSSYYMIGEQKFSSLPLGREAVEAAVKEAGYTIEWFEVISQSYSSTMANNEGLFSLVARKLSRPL
The experiment in a line: Inhibition of NNMT in human 786-O cell lysate using d4-nicotinamide as substrate preincubated for 1 hr followed by substrate and SAM addition measured after 15 to 30 mins by LC-MS analysis.

The target of assay [3] is T3, Nicotinamide N-methyltransferase (Homo sapiens, UniProt P40261).
T3 sequence (P40261 whole entry): T2 sequence (whole entry)
The experiment in a line: Inhibition of NNMT in human 786-O cell lysate using d4-nicotinamide as substrate pretreated for 1 hr at 3 mins post 160 uM SAM addition followed by substrate addition measured after 15 to 30 mins by LC-MS analysis.

Assay [4] deals with T3, Nicotinamide N-methyltransferase. The experiment in a line: Inhibition of NNMT in human 786-O cell lysate using d4-nicotinamide as substrate pretreated for 1 hr at 3 mins post 80 uM SAM addition followed by substrate addition measured after 15 to 30 mins by LC-MS analysis.
The target is the same in assay [5]. The assay is described as follows: Inhibition of NNMT in human 786-O cell lysate using d4-nicotinamide as substrate pretreated for 1 hr at 3 mins post 40 uM SAM addition followed by substrate addition measured after 15 to 30 mins by LC-MS analysis.
Assay [6] has the same target. The assay is described as follows: Inhibition of NNMT in human 786-O cell lysate using d4-nicotinamide as substrate pretreated for 1 hr at 3 mins post 10 uM SAM addition followed by substrate addition measured after 15 to 30 mins by LC-MS analysis.
The target in assay [7] is T2, Nicotinamide N-methyltransferase (Homo sapiens). The experiment in a line: Binding affinity to NNMT C165 residue in human 786-O cell soluble proteomic lysate at 1 to 5 uM incubated for 1 hr followed by cell lysis by IA-alkyne probe based isoTOP-ABPP analysis.
Assay [8] deals with T4, Cytoskeleton-associated protein 4 (Homo sapiens) (UniProt Q07065).
T4 sequence (whole entry): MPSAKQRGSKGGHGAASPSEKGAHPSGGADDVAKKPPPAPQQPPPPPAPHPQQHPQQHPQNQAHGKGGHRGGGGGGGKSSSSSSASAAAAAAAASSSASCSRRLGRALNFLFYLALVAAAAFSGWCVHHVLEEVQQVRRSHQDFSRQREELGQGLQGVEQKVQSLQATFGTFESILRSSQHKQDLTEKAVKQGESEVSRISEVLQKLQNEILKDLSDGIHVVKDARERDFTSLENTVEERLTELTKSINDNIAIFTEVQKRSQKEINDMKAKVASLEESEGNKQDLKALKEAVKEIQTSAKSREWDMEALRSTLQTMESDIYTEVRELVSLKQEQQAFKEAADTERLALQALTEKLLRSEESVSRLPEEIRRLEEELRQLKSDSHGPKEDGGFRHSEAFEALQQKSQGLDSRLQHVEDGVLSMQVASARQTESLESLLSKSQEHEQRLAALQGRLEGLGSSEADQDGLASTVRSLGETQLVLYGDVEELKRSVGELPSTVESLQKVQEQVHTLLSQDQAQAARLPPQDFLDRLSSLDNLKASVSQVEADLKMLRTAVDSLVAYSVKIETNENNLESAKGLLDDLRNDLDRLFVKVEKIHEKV
The assay is described as follows: Binding affinity to CKAP4 cysteine residue in human 786-O cell soluble proteomic lysate at 5 uM incubated for 1 hr followed by cell lysis by IA-alkyne probe based isoTOP-ABPP analysis.

Assay [9] concerns the target T5, Thioredoxin domain-containing protein 17 (Homo sapiens) (UniProt Q9BRA2).
T5 sequence (whole entry): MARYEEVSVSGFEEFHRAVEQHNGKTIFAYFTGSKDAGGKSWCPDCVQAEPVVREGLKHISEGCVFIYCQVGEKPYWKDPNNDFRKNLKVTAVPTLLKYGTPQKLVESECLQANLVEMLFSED
The assay is described as follows: Binding affinity to TXNDC17 cysteine residue in human 786-O cell soluble proteomic lysate at 5 uM incubated for 1 hr followed by cell lysis by IA-alkyne probe based isoTOP-ABPP analysis.

For assay [10], the target named is T6, Glutathione S-transferase omega-1 (Homo sapiens) (UniProt P78417).
T6 sequence (whole entry): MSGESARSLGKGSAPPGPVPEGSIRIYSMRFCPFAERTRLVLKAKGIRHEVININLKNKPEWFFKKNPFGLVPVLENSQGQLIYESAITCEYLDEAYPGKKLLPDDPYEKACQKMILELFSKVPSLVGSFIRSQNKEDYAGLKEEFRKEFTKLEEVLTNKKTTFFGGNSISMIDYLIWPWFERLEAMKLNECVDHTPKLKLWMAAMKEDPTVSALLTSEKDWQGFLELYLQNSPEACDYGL
The assay is described as follows: Binding affinity to GSTO1 C32 residue in human 786-O cell lysate at 5 uM incubated for 1 hr followed by cell lysis by IA-alkyne probe based isoTOP-ABPP analysis.

Active and inactive are the calls of the source. The calls are words filed in the database; no cut-off is given here. Where only a bound is given, the exact number is not on record here.

As usually defined, the IC50 is the midpoint of a concentration-inhibition curve.

`O=C(Nc1cccnc1Cl)c1cc(N(CCCc2ccccc2)C(=O)CCl)cc(C(F)(F)F)c1`: the result in assay [1] was Active.

In the case of `CC(C)CCN(C(=O)CCl)c1cc(C(=O)NCc2cccc([N+](=O)[O-])c2)cc(C(F)(F)F)c1`, the inhibition result in [2] is “Dose-dependent effect”. In addition, the IC50 was more than 100 µM in assay [3], 39 µM in assay [4], 10 µM in assay [5] and 4 µM in assay [6]. The result in assay [7], in assay [8], in [9] and in assay [10] was Active.
